US11535679B2, “Bispecific antibody against CD3 and CD20 in combination therapy for treating follicular lymphoma” (GENMAB A/S, priority 2020, dated 2022)

Assays:
[1] = tested on: SU-DHL-4 cells; assay type: cell-based, human; details: bendamustine alone, 0-20 μM, 48 hours
Description: (§1) Briefly, Human Burkitt lymphoma (Raji [ATCC, cat. no. CCL-86]) and DLBCL (SU-DHL-4 [Deutsche Sammlung von Mikroorganismen and Zellkulturen—DSMZ, cat. no. ACC-495]) cell lines were used as target cells. Cells were cultured in culture medium (RPMI 1640 with HEPES and L-Glutamine supplemented with 10% heat-inactivated donor bovine serum with iron, and 1% [v/v] penicillin/streptomycin) to which 2 mM L-glutamine, and 1 mM sodium pyruvate were added, at 37° C., 5% CO2. T cells, which were isolated from human healthy donor buffy coats by negative selection using the RosetteSep™ Human T Cell Enrichment Cocktail (Stemcell Technologies) followed by density centrifugation over a Ficoll gradient, both according to the manufacturer's instructions, were used as effector cells. Isolated cells were washed twice in phosphate buffered saline (PBS) and counted using acridine orange/propidium iodide (AO/PI) viability staining solution (Nexcelom Bioscience) on a Cellometer® Auto 2000 Cell Viability Counter. […] B-cell viability and T-cell activation were measured by flow cytometry (count of CD22-positive cells; expression of the activation markers CD69, CD25, and CD107 [LAMP-1] on CD4+ and CD8+ T cells). The percentage cytotoxicity was calculated as follows: % cytotoxicity=100−([cell countsample/cell countno antibody]×100%)

[2] = tested on: Raji cells; assay type: cell-based, human; details: bendamustine alone, 0-20 μM, 48 hours
Description: as §1

[3] = target: T1, CD20 (Homo sapiens, UniProt P11836); details: rituximab versus IgG1-CD20; different epitopes; cited from earlier work
T1 sequence (P11836 1-297): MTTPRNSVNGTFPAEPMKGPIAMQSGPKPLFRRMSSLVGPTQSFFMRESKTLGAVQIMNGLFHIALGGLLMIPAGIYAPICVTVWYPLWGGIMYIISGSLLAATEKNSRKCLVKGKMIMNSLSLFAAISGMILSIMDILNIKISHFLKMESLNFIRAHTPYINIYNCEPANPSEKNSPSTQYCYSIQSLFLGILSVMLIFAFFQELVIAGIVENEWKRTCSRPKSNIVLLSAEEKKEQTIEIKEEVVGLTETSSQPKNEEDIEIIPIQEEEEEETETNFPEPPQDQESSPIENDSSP

[4] = tested on: follicular lymphoma; details: double-refractory cases; cited from earlier work
[5] = tested on: R/R B-NHL patients; test: Ongoing clinical trial of epcoritamab monotherapy (NCT03625037); assay type: in vivo, human; details: preliminary data
Excerpt: Epcoritamab as monotherapy is currently in a clinical trial for the treatment of relapsed/refractory (R/R) B-NHL (ClinicalTrials.gov Identifier: NCT03625037).

[6] = tested on: T cells in presence of SU-DHL-4 cells; test: In vitro T-cell activation assay, T cells incubated with SU-DHL-4 cells; assay type: cell-based, human; details: SU-DHL-4 target cells
Description: (§2) Briefly, Human Burkitt lymphoma (Raji [ATCC, cat. no. CCL-86]) and DLBCL (SU-DHL-4 [Deutsche Sammlung von Mikroorganismen and Zellkulturen—DSMZ, cat. no. ACC-495]) cell lines were used as target cells. Cells were cultured in culture medium (RPMI 1640 with HEPES and L-Glutamine supplemented with 10% heat-inactivated donor bovine serum with iron, and 1% [v/v] penicillin/streptomycin) to which 2 mM L-glutamine, and 1 mM sodium pyruvate were added, at 37° C., 5% CO2. T cells, which were isolated from human healthy donor buffy coats by negative selection using the RosetteSep™ Human T Cell Enrichment Cocktail (Stemcell Technologies) followed by density centrifugation over a Ficoll gradient, both according to the manufacturer's instructions, were used as effector cells. Isolated cells were washed twice in phosphate buffered saline (PBS) and counted using acridine orange/propidium iodide (AO/PI) viability staining solution (Nexcelom Bioscience) on a Cellometer® Auto 2000 Cell Viability Counter. T cells (100,000 cells/well) were incubated with Raji or SU-DHL-4 cells (50,000 cells/well) in culture medium in the presence of epcoritamab (0.033 pg/mL-333 ng/mL) and bendamustine (0-20 μM) at 37° C., 5% CO2 for 48 hours. B-cell viability and T-cell activation were measured by flow cytometry (count of CD22-positive cells; expression of the activation markers CD69, CD25, and CD107 [LAMP-1] on CD4+ and CD8+ T cells). The percentage cytotoxicity was calculated as follows: % cytotoxicity=100−([cell countsample/cell countno antibody]×100%)

[7] = tested on: primary DLBCL and follicular lymphoma patient biopsies; details: biopsies taken a certain time after anti-CD20 antibody administration; cited from earlier work
[8] = tested on: CD20-expressing Raji-luc tumor cells; details: NOD-SCID mice injected with Raji-luc tumor cells and PBMCs; even in presence of excess IgG1-RTX-FEAR; cited from earlier work
[9] = tested on: T cells in presence of Raji cells; test: In vitro T-cell activation assay, T cells incubated with Raji cells; assay type: cell-based, human; details: Raji target cells
Description: as §2

[10] = bendamustine 0-20 μM, data not shown
[11] = epcoritamab 0.033 pg/mL-333 ng/mL, 48 hours

Cn1c(CCCC(=O)O)nc2cc(N(CCCl)CCCl)ccc21 [bendamustine, 4-[5-[Bis(2-chloroethyl)amino]-1-methyl-1H-benzo[d]imidazole-2-yl]butanoic acid]
number of viable B cells [1]: decreased the number of viable B cells in a dose dependent manner | number of viable B cells [2]: decreased the number of viable B cells in a dose dependent manner

IgG1-CD20: CD20 antibody of which the CD20 arm of epcoritamab is derived
competition for CD20 binding [3]: compete for CD20 binding

CC[C@H](Nc1ncnc2[nH]cnc12)c1nc2cccc(F)c2c(=O)n1-c1ccccc1 [idelalisib]
1-year PFS [4]: 43% | toxicities [4]: several toxicities leading to treatment discontinuation

Epcoritamab: IgG1 bispecific CD3xCD20 antibody, heavy/light chains SEQ ID NOs: 24, 25 and 26, 27; CAS 2134641-34-0
tolerability [5]: tolerated at doses up to at least 48 mg, including 60 mg | epcoritamab-induced T-cell activation in presence of bendamustine ([6]; bendamustine 0-20 μM, 48 hours): not affected by the presence of bendamustine at all concentrations tested | upregulation of activation markers on CD4+ T cells in presence of bendamustine [6, 10]: not affected by bendamustine | activation of CD8+ T cells (CD69, CD25, LAMP-1 upregulation) [6, 11]: induced concentration-dependent activation of CD8+ T cells | T-cell-mediated cytotoxicity [7]: induced T-cell-mediated cytotoxicity | tumor growth [8]: effectively reduce tumor growth | epcoritamab-induced T-cell activation in presence of bendamustine ([9]; bendamustine 0-20 μM, 48 hours): not affected by the presence of bendamustine at all concentrations tested | upregulation of activation markers on CD4+ T cells in presence of bendamustine [9, 10]: not affected by bendamustine | activation of CD8+ T cells (CD69, CD25, LAMP-1 upregulation) [9, 11]: induced concentration-dependent activation of CD8+ T cells
